Data reported in DBAASP.
Converted amounts (≈) assume the structure as drawn. Blank lines part the entries; values can stand above or below the molecule they belong to.

Assays:
Assay in all cases: ≥ marks a high value that may be exact or a test limit, other limits are often not marked, values filed in µg/mL are converted to µM
Escherichia coli BL21AI = tested on: Escherichia coli BL21AI
[1] = tested on: Micrococcus luteus ATCC 10240
[2] = tested on: Staphylococcus aureus ATCC 12493
[3] = tested on: Enterococcus faecalis NCTC 12697
[4] = tested on: Escherichia coli NCTC 10418
Bacillus subtilis 168 = tested on: Bacillus subtilis 168
[5] = tested on: Escherichia coli DH5alpha
Staphylococcus xylosus = tested on: Staphylococcus xylosus
Leuconostoc lactis = tested on: Leuconostoc lactis
Escherichia coli ML-35 = tested on: Escherichia coli ML-35
[6] = tested on: Staphylococcus aureus ATCC 25923
[7] = tested on: Salmonella enterica subsp. enterica serovar Typhimurium ATCC 14028
Bacillus megaterium Bm11 = tested on: Bacillus megaterium Bm11
[8] = tested on: Escherichia coli ATCC 25726
Shigella dysenteriae = tested on: Shigella dysenteriae
Salmonella typhimurium = tested on: Salmonella typhimurium
Candida albicans = tested on: Candida albicans
Proteus mirabilis = tested on: Proteus mirabilis
Serratia marcescens = tested on: Serratia marcescens
Escherichia coli = tested on: Escherichia coli
[9] = tested on: Staphylococcus epidermidis
Bacillus subtilis = tested on: Bacillus subtilis
Micrococcus luteus = tested on: Micrococcus luteus
Saccharomyces cerevisiae = tested on: Saccharomyces cerevisiae
Pseudomonas aeruginosa = tested on: Pseudomonas aeruginosa
Klebsiella pneumoniae = tested on: Klebsiella pneumoniae
Staphylococcus aureus = tested on: Staphylococcus aureus

MIC (Escherichia coli BL21AI): ≥ 61 µM
MIC [1]: 3.81 µM (≈ 8 µg/mL)
SMILES: CC[C@H](C)[C@H](NC(=O)[C@@H]1CCCN1C(=O)[C@H](CCCN=C(N)N)NC(=O)[C@@H]1CCCN1C(=O)[C@H](Cc1cnc[nH]1)NC(=O)[C@H](CO)NC(=O)[C@@H](NC(=O)[C@@H]1CCCN1C(=O)[C@H](CCCN=C(N)N)NC(=O)[C@@H]1CCCN1C(=O)[C@H](CO)NC(=O)[C@H](Cc1ccc(O)cc1)NC(=O)[C@@H]1CCCN1C(=O)[C@H](CCCN=C(N)N)NC(=O)[C@@H]1CCCN1C(=O)[C@H](CCCCN)NC(=O)CN)[C@@H](C)O)C(=O)N[C@@H](CCCN=C(N)N)C(N)=O [GKPRPYSPRPTSHPRPIR]

MIC [2]: ≥ 512 µM
MIC [3]: ≥ 512 µM
MIC [4]: ≥ 512 µM
SMILES: CC(C)C[C@H](NC(=O)[C@H](C)NC(=O)[C@H](Cc1c[nH]c2ccccc12)NC(=O)[C@H](CCCCN)NC(=O)[C@H](CC(C)C)NC(=O)[C@@H](N)Cc1ccccc1)C(=O)N[C@@H](CCCCN)C(=O)N[C@H](C(=O)N[C@@H](C)C(=O)N[C@@H](C)C(=O)N[C@@H](CCCCN)C(N)=O)C(C)C [FLKWALKVAAK]

MIC (Bacillus subtilis 168): 7 µM (≈ 12.9 µg/mL)
SMILES: CC[C@H](C)[C@H](NC(=O)[C@H](CS)NC(=O)[C@H](CCSC)NC(=O)[C@H](C)NC(=O)[C@H](CCCN=C(N)N)NC(=O)[C@@H](N)CC(C)C)C(=O)N[C@@H](CCCCN)C(=O)N[C@@H](Cc1c[nH]c2ccccc12)C(=O)N[C@@H](Cc1c[nH]c2ccccc12)C(=O)N[C@@H](CO)C(=O)NCC(=O)N[C@@H](CCCCN)C(=O)N[C@@H](Cc1cnc[nH]1)C(=O)N1CCC[C@H]1C(=O)N[C@@H](CCCCN)C(=O)O [LRAMCIKWWSGKHPK]

MIC [5]: 16 µM (≈ 21.6 µg/mL)
MIC (Staphylococcus xylosus): 8 µM (≈ 10.8 µg/mL)
SMILES: CC(C)C[C@H](NC(=O)[C@H](CC(C)C)NC(=O)[C@H](CC(C)C)NC(=O)[C@H](CC(C)C)NC(=O)[C@H](CC(C)C)NC(=O)[C@H](CCCCN)NC(=O)[C@H](CCCCN)NC(=O)[C@@H](N)CCCCN)C(=O)N[C@@H](CCCCN)C(=O)N[C@@H](CCCCN)C(=O)N[C@@H](CCCCN)C(=O)O [KKKLLLLLKKK]

MIC (Leuconostoc lactis): 20.9 µM (≈ 50 µg/mL)
SMILES: CC[C@H](C)[C@H](NC(=O)[C@H](CO)NC(=O)[C@H](CO)NC(=O)[C@@H](NC(=O)[C@H](CC(C)C)NC(=O)CN)C(C)C)C(=O)NCC(=O)N[C@@H](CCCCN)C(=O)N[C@@H](C)C(=O)N[C@@H](CC(C)C)C(=O)NCC(=O)NCC(=O)N[C@@H](CC(C)C)C(=O)N[C@@H](CC(C)C)C(=O)N[C@H](C(=O)N[C@@H](CC(=O)O)C(=O)N[C@H](C(=O)N[C@H](C(=O)N[C@@H](CCCCN)C(=O)N[C@@H](CO)C(=O)N[C@@H](CCCCN)C(=O)NCC(=O)N[C@@H](CCC(N)=O)C(=O)N1CCC[C@H]1C(=O)N[C@@H](C)C(=O)O)C(C)C)C(C)C)C(C)C [GLVSSIGKALGGLLVDVVKSKGQPA]

MIC (Escherichia coli BL21AI): 3.19 µM (≈ 8 µg/mL)
MIC [1]: 3.19 µM (≈ 8 µg/mL)
SMILES: CC[C@H](C)[C@H](NC(=O)[C@H](CCCN=C(N)N)NC(=O)[C@H](CCCN=C(N)N)NC(=O)[C@@H]1CCCN1C(=O)[C@@H]1CCCN1C(=O)[C@H](CCCN=C(N)N)NC(=O)[C@@H]1CCCN1C(=O)[C@H](CCCN=C(N)N)NC(=O)[C@@H]1CCCN1C(=O)[C@H](CC(C)C)NC(=O)[C@H](Cc1ccc(O)cc1)NC(=O)[C@@H]1CCCN1C(=O)[C@@H]1CCCN1C(=O)[C@H](CCCCN)NC(=O)[C@H](CC(=O)O)NC(=O)[C@@H](N)C(C)C)C(=O)N[C@@H](Cc1ccc(O)cc1)C(=O)N[C@@H](CC(N)=O)C(=O)N[C@@H](CC(N)=O)C(=O)N[C@@H](CCCN=C(N)N)C(N)=O [VDKPPYLPRPRPPRRIYNNR]

MIC (Escherichia coli ML-35): 4 µM (≈ 9.53 µg/mL)
MIC [6]: 8 µM (≈ 19.1 µg/mL)
MIC [7]: 8 µM (≈ 19.1 µg/mL)
MIC (Bacillus megaterium Bm11): 8 µM (≈ 19.1 µg/mL)
SMILES: CC(C)C[C@H](NC(=O)[C@H](CCCN=C(N)N)NC(=O)[C@H](CCCN=C(N)N)NC(=O)[C@H](Cc1ccccc1)NC(=O)[C@H](CCCN=C(N)N)NC(=O)CN)C(=O)NCC(=O)N[C@@H](CCCN=C(N)N)C(=O)N[C@@H](CCCCN)C(=O)N[C@@H](Cc1ccccc1)C(=O)N[C@@H](CCCCN)C(=O)N[C@@H](CCCCN)C(=O)N[C@@H](CC(C)C)C(=O)N[C@@H](Cc1ccccc1)C(=O)N[C@@H](CCCCN)C(=O)N[C@@H](CCCCN)C(=O)N[C@@H](Cc1ccc(O)cc1)C(=O)NCC(=O)N1CCC[C@H]1C(=O)O [GRFRRLGRKFKKLFKKYGP]

MIC (Escherichia coli BL21AI): 8.62 µM (≈ 16 µg/mL)
MIC [1]: 2.15 µM (≈ 4 µg/mL)
SMILES: CC(C)C[C@H](NC(=O)[C@H](CCCN=C(N)N)NC(=O)[C@@H]1CCCN1C(=O)[C@H](Cc1cnc[nH]1)NC(=O)[C@@H]1CCCN1C(=O)[C@@H](NC(=O)[C@@H]1CCCN1C(=O)[C@H](CCCN=C(N)N)NC(=O)[C@@H]1CCCN1C(=O)[C@H](CO)NC(=O)[C@H](Cc1ccc(O)cc1)NC(=O)[C@@H]1CCCN1C(=O)[C@H](CCCN=C(N)N)NC(=O)[C@@H]1CCCN1C(=O)[C@H](CCCCN)NC(=O)CN)[C@@H](C)O)C(N)=O [GKPRPYSPRPTPHPRL]

MIC [6]: 13 µM (≈ 62.5 µg/mL)
MIC [8]: 13 µM (≈ 62.5 µg/mL)
SMILES: CC[C@H](C)[C@H](NC(=O)CN)C(=O)N[C@@H](Cc1ccccc1)C(=O)N[C@@H](CO)C(=O)N[C@@H](CCCCN)C(=O)N[C@@H](Cc1ccccc1)C(=O)NCC(=O)NCC(=O)N[C@@H](CCCCN)C(=O)N[C@@H](C)C(=O)N[C@H](C(=O)N[C@@H](CCCCN)C(=O)N[C@@H](CC(N)=O)C(=O)N[C@@H](CC(C)C)C(=O)N[C@@H](Cc1ccccc1)C(=O)N[C@H](C(=O)N[C@@H](CCCCN)C(=O)NCC(=O)N[C@@H](C)C(=O)N[C@@H](CCCCN)C(=O)N[C@@H](CC(N)=O)C(=O)N[C@H](C(=O)NCC(=O)N[C@@H](CCCCN)C(=O)N[C@@H](CCC(=O)O)C(=O)N[C@H](C(=O)NCC(=O)N[C@@H](CCSC)C(=O)N[C@@H](CC(=O)O)C(=O)N[C@H](C(=O)N[C@H](C(=O)N[C@@H](CCCN=C(N)N)C(=O)N[C@H](C(=O)NCC(=O)N[C@H](C(=O)N[C@@H](CC(=O)O)C(=O)N[C@H](C(=O)N[C@@H](C)C(=O)NCC(=O)N[C@H]1CSSC[C@@H](C(=O)O)NC(=O)[C@H](CCC(=O)O)NC(=O)CNC(=O)[C@H](CCCCN)NC(=O)[C@H]([C@@H](C)CC)NC(=O)[C@H](CCCCN)NC1=O)C(C)C)[C@@H](C)CC)[C@@H](C)O)[C@@H](C)CC)C(C)C)C(C)C)[C@@H](C)CC)[C@@H](C)CC)[C@@H](C)CC [GIFSKFGGKAIKNLFIKGAKNIGKEVGMDVIRTGIDVAGCKIKGEC]

MIC (Shigella dysenteriae): 9.52 µM (≈ 25 µg/mL)
MIC (Salmonella typhimurium): 28.5 µM (≈ 75 µg/mL)
MIC (Candida albicans): > 38.1 µM
MIC (Proteus mirabilis): 19 µM (≈ 50 µg/mL)
MIC (Serratia marcescens): ≥ 38.1 µM
MIC (Escherichia coli): 9.52 µM (≈ 25 µg/mL)
MIC [9]: 28.5 µM (≈ 75 µg/mL)
MIC (Bacillus subtilis): 19 µM (≈ 50 µg/mL)
MIC (Micrococcus luteus): 0.952 µM (≈ 2.5 µg/mL)
MIC (Saccharomyces cerevisiae): 9.52 µM (≈ 25 µg/mL)
MIC (Pseudomonas aeruginosa): 19 µM (≈ 50 µg/mL)
SMILES: CC[C@H](C)[C@H](NC(=O)CN)C(=O)N[C@@H](CC(C)C)C(=O)N[C@@H](CC(=O)O)C(=O)N[C@H](C(=O)N[C@@H](CC(C)C)C(=O)N[C@@H](CCCCN)C(=O)N[C@@H](CCC(N)=O)C(=O)N[C@@H](Cc1ccccc1)C(=O)N[C@@H](C)C(=O)N[C@@H](CCCCN)C(=O)NCC(=O)N[C@H](C(=O)NCC(=O)N[C@@H](CCCCN)C(=O)N[C@@H](CC(=O)O)C(=O)N[C@@H](CC(C)C)C(=O)N[C@H](C(=O)N[C@@H](CCCCN)C(=O)NCC(=O)N[C@@H](C)C(=O)N[C@@H](C)C(=O)N[C@@H](CCC(N)=O)C(=O)NCC(=O)N[C@H](C(=O)N[C@@H](CC(C)C)C(=O)O)C(C)C)C(C)C)C(C)C)[C@@H](C)O [GILDTLKQFAKGVGKDLVKGAAQGVL]

MIC (Shigella dysenteriae): 19.7 µM (≈ 25 µg/mL)
MIC (Salmonella typhimurium): ≥ 78.9 µM
MIC (Proteus mirabilis): ≥ 158 µM
MIC (Escherichia coli): 19.7 µM (≈ 25 µg/mL)
MIC (Klebsiella pneumoniae): 9.86 µM (≈ 12.5 µg/mL)
MIC [9]: 19.7 µM (≈ 25 µg/mL)
MIC (Bacillus subtilis): 9.86 µM (≈ 12.5 µg/mL)
MIC (Micrococcus luteus): ≥ 39.4 µM
MIC (Staphylococcus aureus): 9.86 µM (≈ 12.5 µg/mL)
MIC (Pseudomonas aeruginosa): 158 µM (≈ 200 µg/mL)
SMILES: CC(C)C[C@H](NC(=O)[C@H](C)NC(=O)CNC(=O)[C@H](CC(C)C)NC(=O)[C@@H](N)Cc1ccccc1)C(=O)N[C@@H](Cc1ccccc1)C(=O)N[C@@H](CCCCN)C(=O)N[C@@H](Cc1c[nH]c2ccccc12)C(=O)N[C@@H](C)C(=O)N[C@@H](CO)C(=O)N[C@@H](CCCCN)C(=O)O [FLGALFKWASK]
